The text below walks through data of US12590953B2, “Methods for screening cereblon modifying compounds” (CELGENE CORPORATION, priority 2018, dated 2026).

Data set [1] concerns the target T1, endogenous SALL4 in NCCIT, NETRA-2 c1.D1 and AN3-CA cancer cell lines (Homo sapiens, UniProt Q96SW2+Q9UJQ4).
T1 construct: endogenous in cells; host or cells: NCCIT, NETRA-2 c1.D1 and AN3-CA cancer cell lines
Description: Degradation of endogenous SALL4 in cancer cell lines, western blot. It counts as cell-based. Particulars: 16 hour treatment; anti-SALL4 western blot. On the technique in general: A western blot detects proteins with antibodies after separation by electrophoresis.

For data set [2], the target named is T2, SALL4 (Homo sapiens, UniProt Q96SW2).
T2 construct: from tissue; host or cells: testis of homozygous huCRBN knock-in mice
Description: SALL4 immunohistochemistry in huCRBN mouse testis. It counts as in vivo. Particulars: huCRBN mice, up to 1000 mg/kg for 7 days. The method, then: The SALL4 and ZFP91 protein levels were examined by immunohistochemistry in rabbit, wild-type mouse, and humanized cereblon mouse testes. […] HuCRBN Mice were treated for 7 days and testis were collected and examined by immunohistochemistry (n=3 animals per treatment group per species).
Rabbit embryos were stained for SALL4, and mouse testis were stained for SALL4 and ZFP91. Immunohistochemistry (IHC) was performed on the Bond-III automated slide stainer (Leica Microsystems, Buffalo Grove, Ill.) using the Bond Polymer Refine Detection system (Leica Microsystems, DS9800). Formalin fixed paraffin embedded (FFPE) tissues were sectioned at four micron thick and deparaffinized on the Bond-Max instrument. Antigen retrieval was performed with Epitope Retrieval 2 (ER2, pH 9.0) for 20 min at 100° C. The slides were blocked for endogenous peroxidase activity with Peroxide Block for 5 minutes at room temperature. Sections were then incubated with the mouse monoclonal anti-SALL4 EE-30 antibody (Santa Cruz, sc-101147) at a 1:100 dilution for 60 min at room temperature, or with the rabbit monoclonal anti-ZFP91 antibody (Celgene custom clone 122-8-6) at 0.25 ug/ml. For mouse testis, primary antibodies were incubated for 15 min at room temperature, and Post-Primary and horseradish peroxidase (HRP) labeled Polymer were incubated at the instrument's default conditions. […]

A short description of data set [3]: Toxicokinetics in huCRBN mice. It counts as in vivo. Conditions: oral, GD 15. Here is the method: (§1) Thalidomide was administered to female HOM huCRBN mice by oral gavage at dose levels of 0 (1.0% [w/v] carboxymethylcellulose [1500-3000 cP] in RO deionized water), 100, 300, or 1000 mg/kg/day once daily on Gestation Day [GD] 6 through 15. On GD 15, blood samples were collected from the submandibular vein of mice assigned to study at 0.5, 1, 3, 6, and 24 hours postdose for bioanalytical and toxicokinetic evaluation. […] Mice were euthanized and examined, and a gross necropsy was performed. The ovaries and uterus were examined for number and distribution of corpora lutea, implantation sites, placentae (size, color, and shape), live and dead fetuses, and early and late resorptions. Fetuses were euthanized by an intraperitoneal injection of sodium pentobarbital (390 mg/mL). Fetuses were weighed and examined for sex and external abnormalities. Late resorptions were examined for external abnormalities and sex to the extent possible. The body weight of each fetus was recorded. Fetuses were individually identified with the study number, litter number and uterine distribution. Approximately one-half of the fetuses in each litter were examined for visceral abnormalities by using an adaptation of the sectioning technique of Wilson. Each fetus was fixed in Bouin's solution; sections were stored in alcohol. The remaining fetuses (approximately one-half of the fetuses in each litter) were examined for skeletal abnormalities after staining with alizarin red S. Following examination, skeletal preparations were retained in glycerin with thymol added as a preservative.

A further data set relates to huCRBN mice. It counts as in vivo. Particulars: for Live fetuses: female, HOM huCRBN (humanized cereblon). The method, then: as §1
Data set [4] relates to SALL4. Description: Cellular degradation of SALL4 variants in lenti-X-293 HEK cells expressing GST-CRBN. It counts as cell-based, human. Particulars: 40 μM thalidomide, 16 hours. The method, then: Cells were treated with […] (+) or DMSO vehicle control (−) as indicated for 16 hours (n=2, biological replicates).
Lenti-x-293 cells stably expressing GST-CRBN and SALL4 variants were treated with DMSO or 40 μM thalidomide for 16 hours. Cells were then wished with ice-cold 1×PBS twice, lysed in buffer A [50 mM Tris. CL, 150 mM NaCl, 1% triton-x 100, complete protease inhibitor tablet (Roche), phosphatase inhibitor tablet (Roche)]. Whole cell extracts were harvested and subjected to immunoblot analysis.

Molecules are shown by their SMILES. “Also recorded” adds a separate entry of the source. Read-outs that look alike come from different tables or passages of the source.

T2 sequence (Q96SW2 whole entry): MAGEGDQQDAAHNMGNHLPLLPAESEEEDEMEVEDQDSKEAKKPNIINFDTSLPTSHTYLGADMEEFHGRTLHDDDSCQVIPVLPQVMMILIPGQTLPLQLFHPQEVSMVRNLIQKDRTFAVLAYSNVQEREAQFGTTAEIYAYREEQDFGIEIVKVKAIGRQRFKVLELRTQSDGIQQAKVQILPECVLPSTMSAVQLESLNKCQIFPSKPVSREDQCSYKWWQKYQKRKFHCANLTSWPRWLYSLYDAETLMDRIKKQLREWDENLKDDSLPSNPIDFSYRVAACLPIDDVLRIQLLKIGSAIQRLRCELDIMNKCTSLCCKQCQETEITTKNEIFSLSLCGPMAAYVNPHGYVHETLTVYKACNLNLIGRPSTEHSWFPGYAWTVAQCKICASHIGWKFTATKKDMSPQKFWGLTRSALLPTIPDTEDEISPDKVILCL
T2 sequence (Q3U1J4 whole entry partner): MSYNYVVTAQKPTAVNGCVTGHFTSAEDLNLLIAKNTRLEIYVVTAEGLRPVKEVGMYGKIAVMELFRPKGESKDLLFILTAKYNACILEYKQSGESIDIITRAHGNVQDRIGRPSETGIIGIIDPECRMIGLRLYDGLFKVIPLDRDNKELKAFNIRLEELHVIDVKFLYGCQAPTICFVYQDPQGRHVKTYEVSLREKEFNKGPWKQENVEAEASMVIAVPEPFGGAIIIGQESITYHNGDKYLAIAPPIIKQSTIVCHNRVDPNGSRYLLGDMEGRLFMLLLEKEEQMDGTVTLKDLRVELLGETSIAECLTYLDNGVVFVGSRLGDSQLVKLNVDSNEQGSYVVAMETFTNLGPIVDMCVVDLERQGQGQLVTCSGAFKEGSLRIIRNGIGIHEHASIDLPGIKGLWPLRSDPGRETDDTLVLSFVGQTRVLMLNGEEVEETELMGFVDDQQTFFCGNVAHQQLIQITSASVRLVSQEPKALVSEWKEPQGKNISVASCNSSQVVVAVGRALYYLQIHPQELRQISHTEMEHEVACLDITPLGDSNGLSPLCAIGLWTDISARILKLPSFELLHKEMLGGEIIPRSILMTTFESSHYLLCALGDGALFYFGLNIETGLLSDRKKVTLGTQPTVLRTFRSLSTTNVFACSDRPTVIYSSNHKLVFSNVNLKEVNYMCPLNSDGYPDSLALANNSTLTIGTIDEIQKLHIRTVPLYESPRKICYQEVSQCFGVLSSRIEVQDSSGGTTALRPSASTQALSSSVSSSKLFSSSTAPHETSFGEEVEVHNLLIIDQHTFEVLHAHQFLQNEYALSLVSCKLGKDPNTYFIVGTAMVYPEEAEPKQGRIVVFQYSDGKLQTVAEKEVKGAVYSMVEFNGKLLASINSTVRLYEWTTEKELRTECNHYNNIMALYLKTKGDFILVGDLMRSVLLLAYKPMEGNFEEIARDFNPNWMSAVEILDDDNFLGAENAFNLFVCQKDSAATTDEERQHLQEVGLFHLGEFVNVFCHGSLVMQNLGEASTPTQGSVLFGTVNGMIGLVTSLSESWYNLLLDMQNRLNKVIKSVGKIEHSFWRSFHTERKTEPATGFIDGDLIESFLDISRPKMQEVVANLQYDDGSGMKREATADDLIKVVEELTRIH

Regarding `O=C1CCC(N2C(=O)c3ccccc3C2=O)C(=O)N1` (stereo not drawn) [thalidomide], the “Degradation of endogenous SALL4” value in data set [1] is listed as “Significant compound-dependent degradation of endogenous SALL4 was observed”. Moreover, the “SALL4 protein levels in testis” value at SALL4 [2] was “remain unchanged; also recorded: caused degradation of ZFP91 but not SALL4”. For the same compound, the “Mean plasma exposure (area under the curve)” value in data set [3] (100 mg/kg/day) is 35,100 ng·hr/mL; in data set [3] (300 mg/kg/day) it was 78,600 ng·hr/mL; in data set [3] (1000 mg/kg/day) it was 143,000 ng·hr/mL. The Maternal survival entry with huCRBN mice (female huCRBN mice, 0, 100, 300, or 1000 mg/kg/day, GD 6 through 15) was “All animals survived to scheduled necropsy on GD 18”. Besides, the Live fetuses in the data set with huCRBN mice (mouse, in vivo, 100 mg/kg/day) amounted to 9; in the data set with huCRBN mice (mouse, in vivo, 300 mg/kg/day), 7; with huCRBN mice (mouse, in vivo, 1000 mg/kg/day), 8. Further, the “Limb defects (fetal skeleton, alizarin red S)” value in the data set with huCRBN mice (mouse, in vivo, 1000 mg/kg) is given as “limb defects were not observed”. Further, the “Degradation of G416A SALL4” value in the data set on SALL4 [4] is “blocked the thalidomide dependent degradation of SALL4”. For the same compound, the “Degradation of G600A SALL4” value with SALL4 [4] is recorded as “had no effect on SALL4 degradation”.
